Experimental data taken from PubChem BioAssay AID256 (DTP/NCI, 2004).
“And” between values parts separate entries of the source, which are not always exact repeats. Equal values may be shown once. Inconclusive results and toxic doses are left out. Rule for the calls: active = survival T/C of 150% or more; inactive = T/C below 125% in these data.

Tested on: CD2F1 mice, L1210 leukemia ip, survival T/C
Assay: NCI In Vivo Anticancer Drug Screen. Data for tumor model L1210 Leukemia (intraperitoneal) in CD2F1 (CDF1) mice
Conditions: higher = longer survival
Outline: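 Compound-dosed mice with transplantable tumor versus matched vehicle controls; endpoint ratio T/C reported.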

[1] = endpoint: mean survival time, dose: 100.0 mg/kg/injection, schedule: Q01DX009 (ip), vehicle: Klucel (hydroxypropylcellulose) (HPC)
[2] = endpoint: mean survival time, dose: 12.5 mg/kg/injection, schedule: Q01DX009 (ip), vehicle: saline with Tween-80
[3] = endpoint: mean survival time, dose: 25.0 mg/kg/injection, schedule: Q01DX009 (ip), vehicle: saline with Tween-80
[4] = endpoint: mean survival time, dose: 50.0 mg/kg/injection, schedule: Q01DX009 (ip), vehicle: saline with Tween-80
[5] = endpoint: mean survival time, dose: 100.0 mg/kg/injection, schedule: Q01DX009 (ip), vehicle: saline with Tween-80
[6] = endpoint: mean survival time, dose: 200.0 mg/kg/injection, schedule: Q01DX009 (ip), vehicle: saline with Tween-80
[7] = endpoint: mean survival time, dose: 100.0 mg/kg/injection, schedule: Q04DX002 (ip), vehicle: saline with Tween-80
[8] = endpoint: mean survival time, dose: 200.0 mg/kg/injection, schedule: Q04DX002 (ip), vehicle: saline with Tween-80
[9] = endpoint: mean survival time, dose: 400.0 mg/kg/injection, schedule: Q04DX002 (ip), vehicle: saline with Tween-80
[10] = endpoint: mean survival time, dose: 12.5 mg/kg/injection, schedule: Q04DX003 (ip), vehicle: saline with Tween-80
[11] = endpoint: mean survival time, dose: 25.0 mg/kg/injection, schedule: Q04DX003 (ip), vehicle: saline with Tween-80
[12] = endpoint: mean survival time, dose: 50.0 mg/kg/injection, schedule: Q04DX003 (ip), vehicle: saline with Tween-80
[13] = endpoint: mean survival time, dose: 12.5 mg/kg/injection, schedule: Q01DX009 (ip), vehicle: saline
[14] = endpoint: mean survival time, dose: 25.0 mg/kg/injection, schedule: Q01DX009 (ip), vehicle: saline
[15] = endpoint: mean survival time, dose: 100.0 mg/kg/injection, schedule: Q04DX003 (ip), vehicle: saline with Tween-80
[16] = endpoint: mean survival time, dose: 200.0 mg/kg/injection, schedule: Q04DX003 (ip), vehicle: saline with Tween-80
[17] = endpoint: mean survival time, dose: 400.0 mg/kg/injection, schedule: Q04DX003 (ip), vehicle: saline with Tween-80

Measured: T/C

CC1(C(=O)O)CCCC2(C)c3cc(O)ccc3CCC12 (configuration not stated)
inactive: endpoint: mean survival time, dose: 50.0 mg/kg/injection, schedule: Q01DX009 (ip), vehicle: Klucel (hydroxypropylcellulose) (HPC) 94 % of control | [1] 90 % of control

CCC(O)C(C)(C)[N+](=O)[O-] (configuration not stated)
inactive: endpoint: mean survival time, dose: 5.0 mg/kg/injection, schedule: Q01DX009 (ip), vehicle: saline 95 % of control | endpoint: mean survival time, dose: 10.0 mg/kg/injection, schedule: Q01DX009 (ip), vehicle: saline 98 % of control | endpoint: mean survival time, dose: 20.0 mg/kg/injection, schedule: Q01DX009 (ip), vehicle: saline 98 % of control

CN1CCCN(O)C1=O
inactive: endpoint: mean survival time, dose: 37.5 mg/kg/injection, schedule: Q01DX007 (ip), vehicle: saline 94 % of control | endpoint: mean survival time, dose: 75.0 mg/kg/injection, schedule: Q01DX007 (ip), vehicle: saline 92 % of control | endpoint: mean survival time, dose: 150.0 mg/kg/injection, schedule: Q01DX007 (ip), vehicle: saline 94 % of control | endpoint: mean survival time, dose: 300.0 mg/kg/injection, schedule: Q01DX007 (ip), vehicle: saline 100 % of control | endpoint: mean survival time, dose: 600.0 mg/kg/injection, schedule: Q01DX007 (ip), vehicle: saline 100 % of control

c1cnc2ncncc2n1
inactive: [2] 94 % of control and 102 % of control | [3] 94 % of control and 102 % of control | [4] 105 % of control and 106 % of control | [5] 94 % of control and 104 % of control | [6] 96 % of control and 110 % of control

[O-]/[N+](=C\Cc1ccccc1)c1ccccc1
inactive: [7] 90 % of control | [8] 87 % of control | [9] 90 % of control

CC1(C)CCC23CCC4(C)C(CCC5C6(C)CCC(O)C(C)(C)C6CCC54C)C2C1OC3=O (configuration not stated)
inactive: endpoint: mean survival time, dose: 6.25 mg/kg/injection, schedule: Q04DX002 (ip), vehicle: saline with Tween-80 100 % of control | endpoint: mean survival time, dose: 12.5 mg/kg/injection, schedule: Q04DX002 (ip), vehicle: saline with Tween-80 103 % of control | endpoint: mean survival time, dose: 25.0 mg/kg/injection, schedule: Q04DX002 (ip), vehicle: saline with Tween-80 88 % of control and 103 % of control

CCCCCCCCCCCCCCCC[n+]1ccc(C(N)=O)cc1
inactive: [2] 105 % of control | [10] 100 % of control | [11] 98 % of control | [12] 97 % of control

CC12CCCCC1SC(F)(F)C2(F)F (configuration not stated)
inactive: [10] 111 % of control | [11] 88 % of control | [12] 103 % of control

O=P1(NCCCl)OC(c2ccccc2)=CCN1CCCl (configuration not stated)
inactive: endpoint: median survival time, dose: 31.25 mg/kg/injection, schedule: Q01DX001 (ip), vehicle: distilled water + Tween-80 102 % of control | endpoint: median survival time, dose: 62.5 mg/kg/injection, schedule: Q01DX001 (ip), vehicle: distilled water + Tween-80 97 % of control | endpoint: median survival time, dose: 125.0 mg/kg/injection, schedule: Q01DX001 (ip), vehicle: distilled water + Tween-80 97 % of control | endpoint: median survival time, dose: 250.0 mg/kg/injection, schedule: Q01DX001 (ip), vehicle: distilled water + Tween-80 101 % of control | endpoint: median survival time, dose: 500.0 mg/kg/injection, schedule: Q01DX001 (ip), vehicle: distilled water + Tween-80 93 % of control

O=C(O)CCc1[nH]c2ccccc2c1CC(=O)O
inactive: [7] 91 % of control | [8] 98 % of control | [9] 119 % of control

CC(=O)O.CC(=O)O.CC(=O)O.CC(=O)O.[Rh].[Rh]
inactive: endpoint: mean survival time, dose: 6.25 mg/kg/injection, schedule: Q01DX009 (ip), vehicle: saline 110 % of control | [13] 116 % of control | [14] 100 % of control

O=C1C=C(SCCO)C(=O)c2ccccc21
inactive: endpoint: mean survival time, dose: 0.63 mg/kg/injection, schedule: Q01DX009 (ip), vehicle: saline sonified 91 % of control | endpoint: mean survival time, dose: 1.25 mg/kg/injection, schedule: Q01DX009 (ip), vehicle: saline sonified 94 % of control | endpoint: mean survival time, dose: 1.25 mg/kg/injection, schedule: Q04DX003 (ip), vehicle: saline with Tween-80 92 % of control | endpoint: mean survival time, dose: 2.5 mg/kg/injection, schedule: Q01DX009 (ip), vehicle: saline sonified 105 % of control | endpoint: mean survival time, dose: 2.5 mg/kg/injection, schedule: Q04DX003 (ip), vehicle: saline with Tween-80 90 % of control

Cc1ccc(S(=O)(=O)OCC2C(COS(=O)(=O)c3ccc(C)cc3)C3CCC2C2C3C3C2C2(C)C(=O)C3(C)C(c3ccccc3)=C2c2ccccc2)cc1 (configuration not stated)
inactive: endpoint: mean survival time, dose: 100.0 mg/kg/injection, schedule: Q04DX002 (ip), vehicle: other 102 % of control | endpoint: mean survival time, dose: 200.0 mg/kg/injection, schedule: Q04DX002 (ip), vehicle: other 102 % of control | endpoint: mean survival time, dose: 400.0 mg/kg/injection, schedule: Q04DX002 (ip), vehicle: other 111 % of control

O=C(COc1ccc(Cl)c(Cl)c1)Nc1cccc(C(=O)CCl)c1
inactive: [15] 95 % of control | [16] 101 % of control | [17] 103 % of control

CCCCCCCCCCCCCC[N+](C)(C)Cc1cc(=O)c(O)co1
inactive: endpoint: mean survival time, dose: 25.0 mg/kg/injection, schedule: Q04DX003 (ip), vehicle: Klucel (hydroxypropylcellulose) (HPC) 97 % of control | endpoint: mean survival time, dose: 50.0 mg/kg/injection, schedule: Q04DX003 (ip), vehicle: Klucel (hydroxypropylcellulose) (HPC) 109 % of control | endpoint: mean survival time, dose: 100.0 mg/kg/injection, schedule: Q04DX003 (ip), vehicle: Klucel (hydroxypropylcellulose) (HPC) 109 % of control | [15] 87 % of control

COC1=CC(=O)C(OC)=C(OC)C1=O
inactive: endpoint: mean survival time, dose: 3.12 mg/kg/injection, schedule: Q01DX009 (ip), vehicle: saline with Tween-80 94 % of control | endpoint: mean survival time, dose: 6.25 mg/kg/injection, schedule: Q01DX009 (ip), vehicle: saline with Tween-80 97 % of control | [2] 97 % of control | [3] 100 % of control | [4] 105 % of control

Cc1nc2cc3ccccc3cc2n1C1OC(CO)C(O)C1O (configuration not stated)
inactive: endpoint: median survival time, dose: 26.5 mg/kg/injection, schedule: Q01DX005 (ip), vehicle: saline with Tween-80 92 % of control | endpoint: median survival time, dose: 53.0 mg/kg/injection, schedule: Q01DX005 (ip), vehicle: saline with Tween-80 103 % of control | endpoint: median survival time, dose: 106.0 mg/kg/injection, schedule: Q01DX005 (ip), vehicle: saline with Tween-80 93 % of control | endpoint: median survival time, dose: 212.0 mg/kg/injection, schedule: Q01DX005 (ip), vehicle: saline with Tween-80 88 % of control

CCCn1c(O)c(C=N)c(=O)[nH]c1=O
inactive: [5] 101 % of control | [15] 91 % of control | [6] 111 % of control | [16] 92 % of control | [17] 94 % of control

Cc1cccnc1NC(=O)/C=C/C(=O)O
inactive: [10] 96 % of control | [11] 101 % of control | [12] 104 % of control

CCOC(=O)C(=O)Nc1c(C)noc1N
inactive: endpoint: mean survival time, dose: 100.0 mg/kg/injection, schedule: Q01DX001 (ip), vehicle: saline with Tween-80 109 % of control | [1] 93 % of control | endpoint: mean survival time, dose: 200.0 mg/kg/injection, schedule: Q01DX001 (ip), vehicle: saline with Tween-80 104 % of control | endpoint: mean survival time, dose: 200.0 mg/kg/injection, schedule: Q01DX009 (ip), vehicle: Klucel (hydroxypropylcellulose) (HPC) 93 % of control | endpoint: mean survival time, dose: 400.0 mg/kg/injection, schedule: Q01DX001 (ip), vehicle: saline with Tween-80 97 % of control | endpoint: mean survival time, dose: 400.0 mg/kg/injection, schedule: Q01DX009 (ip), vehicle: Klucel (hydroxypropylcellulose) (HPC) 91 % of control

Cn1cnc([N+](=O)[O-])c1Sc1ncn[nH]1
inactive: [13] 104 % of control | endpoint: mean survival time, dose: 12.5 mg/kg/injection, schedule: Q01DX009 (ip), vehicle: suspension in saline 101 % of control | [14] 107 % of control | endpoint: mean survival time, dose: 25.0 mg/kg/injection, schedule: Q01DX009 (ip), vehicle: suspension in saline 104 % of control | endpoint: mean survival time, dose: 50.0 mg/kg/injection, schedule: Q01DX009 (ip), vehicle: saline 104 % of control | endpoint: mean survival time, dose: 50.0 mg/kg/injection, schedule: Q01DX009 (ip), vehicle: suspension in saline 104 % of control | endpoint: mean survival time, dose: 100.0 mg/kg/injection, schedule: Q01DX009 (ip), vehicle: saline 102 % of control | endpoint: mean survival time, dose: 100.0 mg/kg/injection, schedule: Q01DX009 (ip), vehicle: suspension in saline 106 % of control | endpoint: mean survival time, dose: 200.0 mg/kg/injection, schedule: Q01DX009 (ip), vehicle: saline 107 % of control | endpoint: mean survival time, dose: 400.0 mg/kg/injection, schedule: Q01DX009 (ip), vehicle: saline 104 % of control
